Experimental data taken from article PMC11352099 (RSC Medicinal Chemistry, 2024).
Values joined by “and” are separate entries in the source; they are usually repeats but may differ in a detail not shown here. Equal values may be shown once. Read-outs that look alike come from different tables or passages of the source.

Columns and labels:
[1] = biological target: SARS-CoV-2 nsp14 MTase (Severe acute respiratory syndrome coronavirus 2, UniProt P0DTD1); experiment: biochemical; type: biochemical; settings: for Hill slope: Table S1, dose-response curve, variable slope model
[2] = biological target: human RNMT (Homo sapiens, UniProt O43148); experiment: Off-target inhibition of human RNMT; type: biochemical; settings: 25 μM concentration of inhibitor
Source text: Human cells rely on several MTases; therefore, it is necessary to assess the possible off-target effect. […]

[3] = in vitro; settings: human; for efflux ratio at 2 h, 10 µM: Caco-2; for Papp A→B at 2 h, 10 µM / Papp B→A at 2 h, 10 µM: Caco-2, pH 7.4
Description: (§1) 3.5. Caco-2 permeability assay
(§2) Transepithelial bi-directional transport of compounds (10 µM, pH 7.4/7.4) was tested on 21-day differentiated Caco-2 monolayers. Briefly, the cells were seeded at a density of 67 ,500 cells per 96-well plate insert (Millicell®, Merck KGaA, Darmstadt, Germany). They were left to differentiate for 21 days with medium exchange every 2–3 days. Prior to the experiment, the medium from both apical and basolateral well was exchanged for HBSS buffer (containing 10 mM HEPES and 25 mM glucose) and left to equilibrate for 30 min. Compound permeability was assayed by replacing pure HBSS with HBSS containing 10 μM compounds and 220 μM Lucifer yellow (LY) solution in an apical insert (A to B transport) or in a basolateral well (B to A transport). The tre ated cells were then returned to the incubator for 2 h at 37 °C. After that, samples were collected from both apical inserts and basolateral wells and analyzed using LC -MS/MS (SCIEX Triple Quad™ 7500 QTRAP® Ready). LC separation was done on Synergi 4µm Fusion 50 × 2 mm column (Phenomenex) using a water/acetonitrile gradient with 0.1% formic acid starting from 2 to 98% for 4.5 min.
(§3) The apparent permeability coefficient (Papp) was calculated from t he following equation: Papp = (dQ / dt) / C0 * A, where dQ/dt is the rate of absorption of the drug across the cells, C0 is the donor compartment concentration at time zero, and A is the area of the monolayer. Efflux ratio was expressed as (Papp B -A) / (Papp A-B). Recovery (%) was determined as (total compound mass i n donor and receiver compartments at the end of the incubation / initial compound mass in the donor compartment) x 100. The data represent means ± SD of two independent experiments performed in triplicate. […]
(§4) were used as control compounds.

[4] = tested on: Caco-2 monolayers; experiment: in vitro; settings: Caco-2
Description: as §1, §2, §3, §4

[5] = for Plasma stability % of the parent compound after 120 min, Mouse: 10 μM
[6] = microsomes, 0.75 h, 10 µM, pH 7.4
[7] = microsomes, 0.75 h, 10 µM, pH 7.4; remark: listed apart in the source
[8] = for Plasma stability % of the parent compound after 120 min, Human: 10 μM
[9] = tested on: SARS-CoV-2 strain hCoV-19/Czech Republic/NRL_6632_2/2020; experiment: microbe, parasite or virus in culture; type: cell-based; settings: Severe acute respiratory syndrome coronavirus 2; Calu-3 cell line; read-out: EC50 (antiviral effect)
[10] = Table 1 and text, N.I., no inhibition, read-out: IC50
[11] = Table 1 and text, N.I., no inhibition
[12] = Table S1, read-out: IC50 (inhibitory activity)

human RNMT, sequence (O43148 whole entry): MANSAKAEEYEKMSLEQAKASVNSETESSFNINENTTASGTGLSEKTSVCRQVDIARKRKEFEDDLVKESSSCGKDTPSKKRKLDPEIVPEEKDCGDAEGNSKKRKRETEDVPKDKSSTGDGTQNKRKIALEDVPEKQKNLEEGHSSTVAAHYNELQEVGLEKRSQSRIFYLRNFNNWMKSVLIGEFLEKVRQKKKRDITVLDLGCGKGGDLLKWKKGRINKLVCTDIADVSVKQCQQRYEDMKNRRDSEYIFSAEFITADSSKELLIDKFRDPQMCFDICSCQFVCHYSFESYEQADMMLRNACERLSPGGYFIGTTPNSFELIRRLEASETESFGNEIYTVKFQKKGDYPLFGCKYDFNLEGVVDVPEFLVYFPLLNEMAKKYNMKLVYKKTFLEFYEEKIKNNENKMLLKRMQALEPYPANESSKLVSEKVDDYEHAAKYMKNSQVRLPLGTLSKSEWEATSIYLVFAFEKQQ

SMILES: COC(=O)c1ccc(NC(=O)[C@H]2O[C@@H](n3cnc4c(N)ncnc43)[C@H](O)[C@@H]2O)cc1 [12a]
- IC50 [1, 10]: > 25 µM

SMILES: NC(=O)c1ccc(NC(=O)[C@H]2O[C@@H](n3cnc4c(N)ncnc43)[C@H](O)[C@@H]2O)cc1 [12b]
- IC50 [1, 11]: N.I.

SMILES: COc1cccc(NC(=O)[C@H]2O[C@@H](n3cnc4c(N)ncnc43)[C@H](O)[C@@H]2O)c1 [12c]
- IC50 [1, 11]: N.I.

SMILES: COc1ccc(NC(=O)[C@H]2O[C@@H](n3cnc4c(N)ncnc43)[C@H](O)[C@@H]2O)cc1O [12d]
- IC50 [1, 10]: > 25 µM

SMILES: Cc1ccc(NC(=O)[C@H]2O[C@@H](n3cnc4c(N)ncnc43)[C@H](O)[C@@H]2O)cc1O [12e]
- IC50 [1, 11]: N.I.

SMILES: COC(=O)c1cc(NC(=O)[C@H]2O[C@@H](n3cnc4c(N)ncnc43)[C@H](O)[C@@H]2O)ccc1F [12f]
- IC50 [1, 11]: N.I.

SMILES: Nc1ncnc2c1ncn2[C@@H]1O[C@H](C(=O)Nc2ccc(-c3ccoc3)cc2)[C@@H](O)[C@H]1O [12g, (2S,3S,4R,5R)-5-(6-Amino-9H-purin-9-yl)-N-(4-(furan-3-yl)phenyl)-3,4-dihydroxytetrahydrofuran-2-carboxamide]
- IC50 [1, 11]: N.I.

SMILES: Nc1ncnc2c1ncn2[C@@H]1O[C@H](C(=O)Nc2ccc(-c3ccsc3)cc2)[C@@H](O)[C@H]1O [12h]
- IC50 [1, 11]: N.I.

SMILES: Nc1ncnc2c1ncn2[C@@H]1O[C@H](C(=O)Nc2ccc(-c3cn[nH]c3)cc2)[C@@H](O)[C@H]1O [12i]
- IC50 [1, 11]: N.I.

SMILES: Cc1noc(C)c1-c1ccc(NC(=O)[C@H]2O[C@@H](n3cnc4c(N)ncnc43)[C@H](O)[C@@H]2O)cc1 [12j]
- IC50 [1, 11]: N.I.

SMILES: Nc1ncnc2c1ncn2[C@@H]1O[C@H](C(=O)Nc2ccc3c(c2)OCCO3)[C@@H](O)[C@H]1O [12k]
- IC50 [1, 10]: 1.8 µM and 1.81 µM
- Hill slope [1]: -1.01
- IC50 [1, 12]: 1.81 µM

SMILES: Cc1cc(=O)oc2cc(NC(=O)[C@H]3O[C@@H](n4cnc5c(N)ncnc54)[C@H](O)[C@@H]3O)ccc12 [12l]
- inhibitory activity against RNMT [2]: None of the tested compounds exhibited any inhibitory activity
- efflux ratio at 2 h, 10 µM [3]: 3.4
- recovery at 2 h, 10 µM ([3]; Caco-2, Recovery (%) A-B): 85%
- recovery at 2 h, 10 µM ([3]; Caco-2, Recovery (%) B-A): 83%
- Papp A→B at 2 h, 10 µM [3]: 3.1 ± 1.3 ×10⁻⁶ cm/s
- Papp B→A at 2 h, 10 µM [3]: 10.7 ± 2.5 ×10⁻⁶ cm/s
- Papp A-B [4]: 3.1 ± 1.3 cm/s x 10-6
- Papp B-A [4]: 10.7 ± 2.5 cm/s x 10-6
- Plasma stability % of the parent compound after 120 min, Mouse [5]: 93 ± 2.7%
- Microsomal stability % of the parent compound after 45 min, Human [6]: 104 ± 4.1%
- Microsomal stability % of the parent compound after 45 min, Mouse [7]: 95 ± 5.0%
- IC50 [1, 10]: 0.36 ± 0.04 µM
- Hill slope [1]: -1.39
- IC50 [1, 12]: 0.364 µM
- Plasma stability % of the parent compound after 120 min, Human [8]: 103 ± 3.3%
- EC50 [9]: > 50 µM

SMILES: Nc1ncnc2c1ncn2[C@@H]1O[C@H](C(=O)Nc2ccc3c(C(F)(F)F)cc(=O)oc3c2)[C@@H](O)[C@H]1O [12m]
- efflux ratio at 2 h, 10 µM [3]: 4.1
- recovery at 2 h, 10 µM ([3]; Caco-2, Recovery (%) A-B): 96%
- recovery at 2 h, 10 µM ([3]; Caco-2, Recovery (%) B-A): 130%
- Papp A→B at 2 h, 10 µM [3]: 8 ± 2.9 ×10⁻⁶ cm/s
- Papp B→A at 2 h, 10 µM [3]: 32.9 ± 5.3 ×10⁻⁶ cm/s
- Papp A-B [4]: 8.0 ± 2.9 cm/s x 10-6
- Papp B-A [4]: 32.9 ± 5.3 cm/s x 10-6
- Plasma stability % of the parent compound after 120 min, Mouse [5]: 67 ± 3.5%
- stability in mouse plasma (in words) ([5]; plasma): unstable
- Microsomal stability % of the parent compound after 45 min, Human [6]: 90 ± 9.1%
- Microsomal stability % of the parent compound after 45 min, Mouse [7]: 93 ± 9.4%
- IC50 [1, 10]: 1.47 ± 0.14 µM
- Hill slope [1]: -1.01
- IC50 [1, 12]: 1.47 µM
- Plasma stability % of the parent compound after 120 min, Human [8]: 20 ± 1.4%
- stability in human plasma (in words) ([8]; plasma): unstable

SMILES: Cc1cc(=O)[nH]c2cc(NC(=O)[C@H]3O[C@@H](n4cnc5c(N)ncnc54)[C@H](O)[C@@H]3O)ccc12 [12n]
- inhibitory activity against RNMT [2]: None of the tested compounds exhibited any inhibitory activity
- efflux ratio at 2 h, 10 µM [3]: 0.5
- recovery at 2 h, 10 µM ([3]; Caco-2, Recovery (%) A-B): 79%
- recovery at 2 h, 10 µM ([3]; Caco-2, Recovery (%) B-A): 87%
- Papp A→B at 2 h, 10 µM [3]: 4.4 ± 1.8 ×10⁻⁶ cm/s
- Papp B→A at 2 h, 10 µM [3]: 2.2 ± 0.4 ×10⁻⁶ cm/s
- Papp A-B [4]: 4.4 ± 1.8 cm/s x 10-6
- Papp B-A [4]: 2.2 ± 0.4 cm/s x 10-6
- Plasma stability % of the parent compound after 120 min, Mouse [5]: 78 ± 0.3%
- Microsomal stability % of the parent compound after 45 min, Human [6]: 95 ± 0.0%
- Microsomal stability % of the parent compound after 45 min, Mouse [7]: 90 ± 2.9%
- IC50 [1, 10]: 0.35 ± 0.04 µM
- Hill slope [1]: -1.19
- Plasma stability % of the parent compound after 120 min, Human [8]: 97 ± 2.0%
- EC50 [9]: > 50 µM

SMILES: Nc1ncnc2c1ncn2[C@@H]1O[C@H](C(=O)Nc2ccc3c(c2)NC(=O)CC3)[C@@H](O)[C@H]1O [12o]
- IC50 [1, 10]: 6.55 ± 1.44 µM
- Hill slope [1]: -0.91
- IC50 [1, 12]: 6.55 µM

SMILES: Nc1ncnc2c1ncn2[C@@H]1O[C@H](C(=O)Nc2ccc3cccnc3c2)[C@@H](O)[C@H]1O [12p]
- IC50 [1, 10]: 4.81 ± 2.54 µM
- Hill slope [1]: -1.45
- IC50 [1, 12]: 4.81 µM

SMILES: COC(=O)c1ccc(C(=O)NC[C@H]2O[C@@H](n3cnc4c(N)ncnc43)[C@H](O)[C@@H]2O)cc1 [21a]
- inhibitory activity against nsp14 (in words) [1]: significant decrease or complete loss of the inhibitory activity
- IC50 [1, 11]: N.I.

SMILES: Nc1ncnc2c1ncn2[C@@H]1O[C@H](CNC(=O)c2ccc3c(c2)OCCO3)[C@@H](O)[C@H]1O [21k]
- inhibitory activity against nsp14 (in words) [1]: significant decrease or complete loss of the inhibitory activity
- IC50 [1, 11]: N.I.

SMILES: Nc1ncnc2c1ncn2[C@@H]1O[C@H](CNS(=O)(=O)c2ccc3c(c2)OCCO3)[C@@H](O)[C@H]1O [22k]
- inhibitory activity against nsp14 (in words) [1]: significant decrease or complete loss of the inhibitory activity
- IC50 [1, 10]: 15.3 ± 2.55 µM
- Hill slope [1]: -1.55

SMILES: C[C@H]1O[C@@H](O[C@H]2[C@@H](O)C[C@H](O[C@H]3[C@@H](O)C[C@H](O[C@H]4CC[C@@]5(C)[C@H](CC[C@@H]6[C@@H]5C[C@@H](O)[C@]5(C)[C@@H](C7=CC(=O)OC7)CC[C@]65O)C4)O[C@@H]3C)O[C@@H]2C)C[C@H](O)[C@@H]1O [Digoxin, reference compound]
- recovery at 2 h, 10 µM ([3]; Caco-2, Recovery (%) A-B, Table S2, A to B transport): 131%
- recovery at 2 h, 10 µM ([3]; Caco-2, Recovery (%) B-A, Table S2, B to A transport): 77%

SMILES: Cc1cc(=O)oc2cc(SC[C@H]3O[C@@H](n4cnc5c(N)ncnc54)[C@H](O)[C@@H]3O)ccc12 [compound 24]
- inhibitory activity against nsp14 (in words) [1]: significant decrease or complete loss of the inhibitory activity
- IC50 [1, 10]: 3.67 ± 0.4 µM
- Hill slope [1]: -1.04
- IC50 [1, 12]: 3.67 µM

SMILES: Cc1cc(=O)oc2cc(S(=O)(=O)C[C@H]3O[C@@H](n4cnc5c(N)ncnc54)[C@H](O)[C@@H]3O)ccc12 [compound 25]
- inhibitory activity against nsp14 (in words) [1]: significant decrease or complete loss of the inhibitory activity
- IC50 [1, 10]: > 25 µM
